According to article PMC5987406, “Antioxidant, anticholinesterase and antifatigue effects of Trichilia catigua (catuaba)” (BMC Complementary and Alternative Medicine, 2018):

How the values were obtained:
[1] = DPPH assay (radical scavenging); details: 95% confidence interval in parenthesis; linear regression, mean of 3–4 assays
Protocol: The test was based on the protocol of Duarte-Almeida et al. [25], with some modifications. An ethanolic solution of 2,2-diphenyl-1-picryl hydrazyl (DPPH) (Sigma, St. Louis, MO, USA) was prepared in order to produce an absorbance between 0.8 and 0.99 at 517 nm. One hundred microliters of each extract diluted in ethanol (Synth, Diadema, Brazil) at initial concentrations of 0.004, 0.01, 0.04, 0.1, 0.4 and 1.0 mg/mL were pipetted in a cuvette and after the addition of 900 μL of DPPH the cuvette was placed in a spectrophotometer (PG Instruments LTD, Leicestershire, United Kingdom) and read during 2 min at 517 nm. Ethanol (vehicle) was used as control and rutin (Acros Organics, New Jersey, USA) as positive control. The percentage of DPPH scavenger (S) was calculated by the formula: SDPPH = [(Ac - As)/Ac] × 100, where Ac = absorbance for the control and As = absorbance for the sample.
The statistical analysis was carried out using the Statistica® and Graph Pad Prism® software. The EC50 for DPPH and IC50 for acetylcholinesterase were calculated by linear regression using the mean of scavenge or inhibition for each concentration of the tested drugs. […] We adopted a p value of 0.05 as statistically significant.

[2] = test system: mice; assay: Classical fear conditioning, scopolamine-induced amnesia; type: in vivo; details: scopolamine 2 mg/kg i.p., not statistically significant
Protocol: Male albino Swiss mice (30-50 g) and male Wistar rats (300-450 g), 3–4 months old, from our vivarium (Department of Psychobiology, UNIFESP) were housed in rooms with 12 h light-dark circle, controlled temperature (21 ± 2 °C), with filtered tap water and food (Nuvilab, Brazil) ad libitum, except during the experiments. The animals were kept in polypropylene cages (4–5 animals each) with pine shavings as bedding material. […] The animals were euthanized in CO2 chamber or by decapitation (in the case of stress by immobilization test). The protocols followed the International Guiding Principles for Biomedical Research Involving Animals and were approved by UNIFESP ethics committee (Comissão de Ética no Uso de Animais, from Universidade Federal de São Paulo, São Paulo, Brazil) - protocol #0752/07.
On the training day, the animals (except the negative control group) received scopolamine (2 mg/kg, i.p. - Sigma, St. Louis, MO, USA) in 0.9% saline 30 min after the extract treatment and 30 min later were placed individually in the context cage dotted with some visual cues. After 2 min of habituation, three electrical shocks (0.3 mA, 1 s duration and interval of 10s) were delivered to the paws of the animal (adapted from Soeiro et al.). […]

C[C@@H]1O[C@@H](OC[C@H]2O[C@@H](Oc3c(-c4ccc(O)c(O)c4)oc4cc(O)cc(O)c4c3=O)[C@H](O)[C@@H](O)[C@@H]2O)[C@H](O)[C@H](O)[C@H]1O [Rutin, rutin]
DPPH scavenging EC50 [1]: 44 (9–216) μg/mL

CN1[C@@H]2C[C@@H](OC(=O)[C@H](CO)c3ccccc3)C[C@H]1[C@@H]1O[C@@H]12 [scopolamine]
Reduction of freezing time compared with control mice that did not receive scopolamine [2]: 40.9%
